Consider 61 molecules from US12384753B2, “17-beta-hydroxysteroid dehydrogenase type 13 inhibitors and methods of use thereof” (Enanta Pharmaceuticals, Inc., priority 2021, dated 2025).

The IC50 is the concentration that inhibits the measured activity by half.

The target of this assay is Recombinant human HSD17B13 (Homo sapiens (Human), UniProt Q7Z5P4). The assay can be described thus: HSD17B13 rapid-fire mass spectrometry assay (RF/MS assay). It is filed as biochemical. The conditions noted are these: inhibition of HSD17B13; LTB4 10 μM, NAD+ 0.5 mM, RT 3 h; IC50 ranges A-E. An outline of the steps: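 Sf9-expressed human HSD17B13 (80 nM) with 10 μM LTB4 and 0.5 mM NAD+, incubated with compound (0–100 μM) for 3 h at RT in Tris pH 7.5/BSA/Tween-20. After formic acid quench, LTB4 conversion to 12-oxo-LTB4 measured by RapidFire MS/MS. IC50 from normalised residual activity, duplicates.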
Recombinant human HSD17B13, sequence (Q7Z5P4 20-300): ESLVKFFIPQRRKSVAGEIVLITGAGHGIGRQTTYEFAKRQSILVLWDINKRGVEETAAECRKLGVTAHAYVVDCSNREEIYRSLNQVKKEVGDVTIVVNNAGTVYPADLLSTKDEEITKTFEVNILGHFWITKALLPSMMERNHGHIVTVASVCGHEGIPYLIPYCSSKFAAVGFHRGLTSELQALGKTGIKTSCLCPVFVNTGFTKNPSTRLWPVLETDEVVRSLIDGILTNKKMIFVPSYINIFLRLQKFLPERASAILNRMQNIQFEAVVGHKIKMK
For `CCOc1c(F)c(-c2nc(S(=O)(=O)Nc3cc(F)c(C(=O)O)cc3OC)cs2)ccc1[C@H]1CC[C@@H](C(F)(F)F)CC1` [Example 814], the concentration for half-maximal inhibition (IC50) is less than 100 nM.
`COc1cc(C(=O)O)ccc1NS(=O)(=O)N1Cc2nc(-c3ccc(C4CCC(C)(C)CC4)cc3)sc2C1` [Example 458]: the IC50 is 100 to 500 nM.
Then `COc1cc(C(=O)O)ccc1NS(=O)(=O)c1csc(-c2ccc(C3CCC(C)(C)CC3)cc2)n1` [Example 336], with less than 100 nM; and `O=C(O)c1ccc(NS(=O)(=O)c2cnc(-c3ccc(F)cc3)s2)cc1F` [Example 21], with 500 to 1000 nM; and `COc1cc(C(=O)O)ccc1NS(=O)(=O)c1cnc(-c2ccc(F)cc2)s1` [Example 161], with 100 to 500 nM.
On to `COc1cc(C(=O)O)ccc1NS(=O)(=O)c1cccc(-c2ccc(C3CCCCC3)cc2)n1` [Example 412], for which the IC50 lay within 100 to 500 nM.
As for `COc1cc(C(=O)O)ccc1NS(=O)(=O)N1Cc2ccc(C#CC3CCCC3)cc2C1` [Example 342], the IC50 lay in the range of 500 to 1000 nM.
On to `COc1cc(C(=O)O)ccc1NS(=O)(=O)c1ccc(-c2cnn(C3CCCCC3)c2)cc1F` [Example 355], for which the IC50 was 100 to 500 nM.
Then `COc1cc(C(=O)O)c(F)cc1NS(=O)(=O)c1csc(-c2ccc(C3CCC(C)(C)CC3)c(C(N)=O)c2)n1` [Example 533], with 500 to 1000 nM; and `COc1cc(C(=O)O)ccc1NS(=O)(=O)c1csc(C#Cc2cccc(C)c2)n1` [Example 186], with less than 100 nM; and `COc1cc(C(=O)O)ccc1NS(=O)(=O)c1cnc(-c2ccc(-c3ccc(C(F)(F)F)cc3)cc2)s1` [Example 718], with less than 100 nM.
Then `COc1cc(C(=O)O)c(F)cc1NS(=O)(=O)c1csc(-c2ccc(C3=CCC(C(C)C)CC3)c(OC)c2F)n1` (stereo not shown) [Example 799], with less than 100 nM.
Then `COc1cc(C(=O)O)ccc1NS(=O)(=O)c1cncc(C#Cc2cccc(OC(F)(F)F)c2)c1` [Example 434, 3-methoxy-4-((5-((3-(trifluoromethoxy)phenyl)ethynyl)pyridine)-3-sulfonamido)benzoic acid], with 500 to 1000 nM; and `COc1cc(C(=O)O)c(F)cc1NS(=O)(=O)c1csc(-c2ccc(-c3ccc([C@H]4CC[C@H](C(C)C)CC4)cc3C(F)(F)F)cc2C(F)(F)F)n1` [Example 754], with 100 to 500 nM.
With `COc1cc(C(=O)O)ccc1NS(=O)(=O)c1csc(-c2ccc3ccccc3c2)n1` [Example 130], the IC50 lay in the range of 500 to 1000 nM.
As for `COc1ccc(-c2cccc(-c3ccc(S(=O)(=O)Nc4ccc(C(=O)O)cc4OC)s3)c2)cc1` [Example 253], the concentration for half-maximal inhibition (IC50) lay in the range of 100 to 500 nM.
Next, `COc1cc(C(=O)O)ccc1NS(=O)(=O)c1csc(-c2ccc(C3CCC(OC)CC3)cc2)n1` (stereo not shown) [Example 380]: 100 to 500 nM; `COc1cc(C(=O)O)ccc1NS(=O)(=O)c1ccc(-c2ccc(-c3ccc(F)cc3)cc2)s1` [Example 205]: 100 to 500 nM.
Then `COc1cc(C(=O)O)c(F)cc1NS(=O)(=O)c1csc(-c2ccc(C3CCC(C(F)(F)F)CC3)c(OC(C)C)c2F)n1` (stereo not shown) [Example 811], with 100 to 500 nM; and `COc1cc(C(=O)O)ccc1NS(=O)(=O)c1ccc(-c2ccc(C3CCCCC3)cc2)s1` [Example 374], with 100 to 500 nM; and `COc1cc(C(=O)O)c(F)cc1NS(=O)(=O)c1csc(-c2ccc(-c3ccc(C4CCC(C(C)C)CC4)cc3C(F)(F)F)cc2C(F)(F)F)n1` (stereo not shown) [Example 753], with 100 to 500 nM.
Then `COc1cc(C(=O)O)ccc1NS(=O)(=O)c1csc(N2C[C@@H]3C[C@H]2CN3c2ccccc2)n1` [Example 289], with 500 to 1000 nM.
On to `COc1cc(C(=O)O)ccc1NS(=O)(=O)c1cnc(-c2ccc(C3=CCC4(CC3)CC4)cc2)s1` [Example 736], for which the IC50 is 100 to 500 nM.
Next, `COc1cc(C(=O)O)ccc1NS(=O)(=O)c1csc(-c2ccc(F)cc2)n1` [Example 749]: 100 to 500 nM; `COc1cc(C(=O)O)c(F)cc1NS(=O)(=O)c1csc(-c2ccc(C3CCC(C)(C)CC3)cc2F)n1` [Example 511]: less than 100 nM; `COc1cc(C(=O)O)c(F)cc1NS(=O)(=O)c1ccc2sc(-c3ccc([C@H]4CC[C@H](C(C)C)CC4)cc3C(F)(F)F)nc2c1` [Example 798]: 100 to 500 nM.
For `COc1cc(C(=O)O)ccc1NS(=O)(=O)c1csc(-c2ccc(C34CC5CC(CC(C5)C3)C4)cc2)n1` [Example 507], the IC50 lay within 100 to 500 nM.
As for `COc1cc(C(=O)O)c(F)cc1NS(=O)(=O)c1cnc(-c2ccc(C3CCC(C)(C)CC3)cc2)s1` [Example 764], the IC50 was less than 100 nM.
As for `COc1cc(C(=O)O)ccc1NS(=O)(=O)c1ccc(-c2cccc(C)c2)s1` [Example 211], the IC50 is less than 100 nM.
Then `O=C(O)C1CCCN(S(=O)(=O)c2cnc(-c3ccc(F)cc3)s2)C1` (stereo not shown) [Example 65], with more than 100000 nM.
In the case of `COc1cc(C(=O)O)c(F)cc1NS(=O)(=O)c1ccc2sc(-c3ccc(C4CCC(C)(C)CC4)cc3)nc2c1` [Example 664], the IC50 fell in the range of 100 to 500 nM.
Next, `CC[C@H]1CC[C@@H](c2ccc(-c3nc(S(=O)(=O)Nc4ccc(C(=O)O)cc4OC)co3)cc2)CC1` [Example 489]: 100 to 500 nM; `COc1cc(C(=O)O)c(F)cc1NS(=O)(=O)c1cnc(-c2ccc(C3=CCC(F)(F)CC3)cc2)s1` [Example 727]: 100 to 500 nM; `COc1cc(C(=O)O)c(F)cc1NS(=O)(=O)c1cc(-c2ccc(C3CCCCC3)cc2)ccn1` [Example 622]: 500 to 1000 nM.
`COc1cc(C(=O)O)ccc1NS(=O)(=O)c1csc(NCc2ccccc2)n1` [Example 164]: the IC50 was in the range of 1000 to 100000 nM.
On to `CC[C@H]1CC[C@H](c2ccc(-c3nc(S(=O)(=O)Nc4cc(F)c(C(=O)O)cc4OC)c(C)s3)cc2)CC1` [Example 667], for which the IC50 lay within 100 to 500 nM.
Then `COc1ccccc1C#Cc1nc(S(=O)(=O)Nc2cc(F)c(C(=O)O)cc2OC)cs1` [Example 243], with less than 100 nM; and `COc1cc(C(=O)O)ccc1NS(=O)(=O)c1cnc(-c2ccc([C@H]3CC[C@@H](C(F)(F)F)CC3)cc2)s1` [Example 712], with less than 100 nM.
Take `COc1cc(C(=O)O)ccc1NS(=O)(=O)c1csc(N2CCN(c3cccc(OC(F)(F)F)c3)CC2)n1` [Example 282]: the IC50 was in the range of 100 to 500 nM.
Next, `COc1cc(C(=O)O)ccc1NS(=O)(=O)N1Cc2ccc(-c3ccc(F)cc3)cc2C1` [Example 338]: 100 to 500 nM; `COc1cc(C(=O)O)ccc1NS(=O)(=O)C1CCN(c2ncccn2)CC1` [Example 318]: 1000 to 100000 nM; `COc1ccc(CC2CCCN(c3nc(S(=O)(=O)Nc4ccc(C(=O)O)cc4OC)cs3)C2)cc1` (stereo not shown) [Example 275]: 1000 to 100000 nM.
`COc1cc(C(=O)O)c(F)cc1NS(=O)(=O)c1csc(C#Cc2ccc(C)cc2)n1` [Example 220]: the IC50 was less than 100 nM.
Then `COc1cc(C(=O)O)ccc1NS(=O)(=O)c1ccc(-c2ccc(C)cc2)s1` [Example 175], with 100 to 500 nM; and `COc1cc(C(=O)O)c(F)cc1NS(=O)(=O)c1csc(-c2ccc(C3=CCC(C(C)(C)C)CC3)c(F)c2C)n1` (stereo not shown) [Example 594], with less than 100 nM.
For `COc1cc(C(=O)O)c(F)cc1NS(=O)(=O)c1csc(-c2ccc(C3=CCC(C(C)C)CC3)c(F)c2F)n1` (stereo not shown) [Example 771], the IC50 is less than 100 nM.
Regarding `COc1cc(C(=O)O)ccc1NS(=O)(=O)N1Cc2nc(C3CCC(c4ccccc4)CC3)sc2C1` (stereo not shown) [Example 376, 3-methoxy-4-((2-(4-phenylcyclohexyl)-5,6-dihydro-4H-pyrrolo[3,4-d]thiazole)-5-sulfonamido)benzoic acid], the IC50 was less than 100 nM.
As for `COc1cc(C(=O)O)c(F)cc1NS(=O)(=O)c1nc(-c2ccc(C3CCCCC3)cc2)sc1C` [Example 665], the IC50 fell in the range of 100 to 500 nM.
In the case of `COc1cc(C(=O)O)ccc1NS(=O)(=O)c1csc(-c2ccc(C#CC3CCCCC3)cc2)n1` [Example 485], the IC50 lay within 100 to 500 nM.
With `N#Cc1cc(C(=O)O)ccc1NS(=O)(=O)c1cnc(-c2ccc(F)cc2)s1` [Example 76], the IC50 is 500 to 1000 nM.
Next, `COc1cc(C(=O)O)c(F)cc1NS(=O)(=O)c1csc(-c2ccc(C3=CCC(C(C)C)CC3)c(OC(C)C)c2F)n1` (stereo not shown) [Example 584]: less than 100 nM; `CCOP(=O)(OCC)c1ccc(NS(=O)(=O)c2csc(C#Cc3cccc(OC(F)(F)F)c3)n2)c(OC)c1` [Example 392, diethyl (3-methoxy-4-((2-((3-(trifluoromethoxy)phenyl)ethynyl)thiazole)-4-sulfonamido)phenyl)phosphonate]: 1000 to 100000 nM; `COc1cc(C(=O)O)ccc1NS(=O)(=O)N1CCN(c2cccc(-c3ccccc3)c2)CC1` [Example 321]: 1000 to 100000 nM.
On to `COc1cc(C(=O)O)ccc1NS(=O)(=O)N1Cc2nc(-c3ccc4c(c3)OCCO4)sc2C1` [Example 384], for which the 50% inhibitory concentration (IC50) lay within 100 to 500 nM.
Next, `COc1cc(C(=O)O)c(F)cc1NS(=O)(=O)c1csc(-c2ccc(C3CCC(C)(C)CC3)c(F)c2)n1` [Example 513]: less than 100 nM; `COc1cc(C(=O)O)c(F)cc1NS(=O)(=O)c1csc(-c2ccc([C@H]3CC[C@H](C(C)(C)C)CC3)c(F)c2C)n1` [Example 596]: less than 100 nM; `COc1cc(C(=O)O)c(F)cc1NS(=O)(=O)c1csc(-c2ccc(C3=CCC(C)(C)CC3)cn2)n1` [Example 565]: 100 to 500 nM.
With `COc1cc(C(=O)O)c(F)cc1NS(=O)(=O)c1csc(-c2ccc(-c3ccc(C45CC6C[C@H](C4)C[C@H](C6)C5)cc3)cc2OC)n1` [Example 744], the half-inhibitory concentration (IC50) fell in the range of 100 to 500 nM.
With `COc1cc(C(=O)O)ccc1NS(=O)(=O)c1cnc(-c2ccc(-c3ccc(C(F)(F)F)c(C(F)(F)F)c3)cc2)s1` [Example 710], the IC50 lay within 100 to 500 nM.
Then `COc1cc(C(=O)O)c(F)cc1NS(=O)(=O)c1csc(-c2ccc(C3=CCC(C)(C)CC3)cc2C2CC2)n1` [Example 544], with 100 to 500 nM.
Consider `COc1cc(C(=O)O)c(F)cc1NS(=O)(=O)c1csc(-c2ccc(C3=CCC(C(F)(F)F)CC3)c(OC)c2F)n1` (stereo not shown) [Example 600], for which the IC50 is less than 100 nM.
